Experimental data from patent publication US10829481B2, “Benzimidazole derivatives as modulators of ROR-gamma” (Vitae Pharmaceuticals, LLC, priority 2016, dated 2020).

Experiments:
[1] = biological target: recombinant RORγ Ligand Binding Domain (LBD) protein (Homo sapiens (Human), UniProt P51449); assay: Radio-Ligand RORγ Binding Assay (Assay 1); conditions: competition with 25-hydroxy [26,27-3H]-cholesterol, SPA
Method in brief: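 Scintillation proximity competition against 25-hydroxy [26,27-^3H]-cholesterol (8.6 nM solution) for 6×His-GST-tagged RORγ LBD (24 nM solution) in HEPES pH 7.4 with CHAPS, β-octylglucopyranoside and DTT; semi-log compound dilutions, ~1 h total at rt with poly-Lys YSi beads. IC50 from four-parameter fit; Ki derived from [RL] and radioligand KD.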

[2] = biological target: full-length RORγt in Jurkat cells (Homo sapiens (Human), UniProt P51449); assay: RORγt 5×RORE Assay in Jurkat Cells (Assay 2); assay type: cell-based; conditions: 5×RORE Nanoluc luciferase reporter
Chain of full-length RORγt in Jurkat cells (P51449 other isoform, or with tags, fused parts or gaps): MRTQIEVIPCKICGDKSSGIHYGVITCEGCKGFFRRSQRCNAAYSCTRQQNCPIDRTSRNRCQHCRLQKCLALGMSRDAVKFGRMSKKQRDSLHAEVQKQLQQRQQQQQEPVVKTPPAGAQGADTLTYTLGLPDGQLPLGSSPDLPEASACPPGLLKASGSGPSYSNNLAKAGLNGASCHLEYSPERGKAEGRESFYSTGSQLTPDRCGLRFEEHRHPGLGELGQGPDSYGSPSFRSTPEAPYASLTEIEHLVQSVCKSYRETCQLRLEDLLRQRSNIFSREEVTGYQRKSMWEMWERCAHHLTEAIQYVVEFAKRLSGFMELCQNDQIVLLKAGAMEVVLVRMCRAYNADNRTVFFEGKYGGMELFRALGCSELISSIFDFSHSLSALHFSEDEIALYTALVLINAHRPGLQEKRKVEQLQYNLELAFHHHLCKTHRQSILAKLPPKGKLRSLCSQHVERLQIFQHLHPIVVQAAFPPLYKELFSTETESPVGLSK

Chain of recombinant RORγ Ligand Binding Domain (LBD) protein (P51449 269-508): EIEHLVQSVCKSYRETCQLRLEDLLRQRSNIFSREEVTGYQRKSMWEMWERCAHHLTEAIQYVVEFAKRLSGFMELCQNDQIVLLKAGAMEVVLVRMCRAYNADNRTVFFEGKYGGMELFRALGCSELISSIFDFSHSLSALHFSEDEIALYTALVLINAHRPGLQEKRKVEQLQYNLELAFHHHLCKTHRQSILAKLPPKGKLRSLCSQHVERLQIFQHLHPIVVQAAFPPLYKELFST

| Compound | Ki [1] [nM] | IC50 [2] [nM] |
| --- | --- | --- |
| CCS(=O)(=O)c1ccc(CNC(=O)c2ccc3c(c2)nc(C2CCC2)n3Cc2cccc3c2OC(F)(F)O3)cc1 [I-36, 2-cyclobutyl-1-((2,2-difluorobenzo[d][1,3]dioxol-4-yl)methyl)-N-(4-(ethylsulfonyl)benzyl)-1H-benzo[d]imidazole-5-carboxamide] | < 100 | < 100 |
| CCS(=O)(=O)c1ccc(CNC(=O)c2ccc3c(c2)nc(C(F)F)n3Cc2cccc3c2OC(F)(F)O3)cc1 [I-37, 1-((2,2-difluorobenzo[d][1,3]dioxol-4-yl)methyl)-2-(difluoromethyl)-N-(4-(ethylsulfonyl)benzyl)-1H-benzo[d]imidazole-5-carboxamide] | < 100 | < 100 |
| CCS(=O)(=O)c1ccc(CNC(=O)c2ccc3c(c2)nc(C(C)(F)F)n3Cc2cccc3c2OC(F)(F)O3)cc1 [I-38, 1-((2,2-difluorobenzo[d][1,3]dioxol-4-yl)methyl)-2-(1,1-difluoroethyl)-N-(4-(ethylsulfonyl)benzyl)-1H-benzo[d]imidazole-5-carboxamide] | < 100 | < 100 |
| CCS(=O)(=O)c1ccc(CNC(=O)c2ccc3c(c2)nc([C@H]2CCCO2)n3Cc2cccc3c2OC(F)(F)O3)cc1 [I-39.1, (R)-1-((2,2-difluorobenzo[d][1,3]dioxol-4-yl)methyl)-N-(4-(ethylsulfonyl)benzyl)-2-(tetrahydrofuran-2-yl)-1H-benzo[d]imidazole-5-carboxamide] | < 100 | < 100 |
| CCS(=O)(=O)c1ccc(CNC(=O)c2ccc3c(c2)nc([C@@H]2CCCO2)n3Cc2cccc3c2OC(F)(F)O3)cc1 [I-39.2, (S)-1-((2,2-difluorobenzo[d][1,3]dioxol-4-yl)methyl)-N-(4-(ethylsulfonyl)benzyl)-2-(tetrahydrofuran-2-yl)-1H-benzo[d]imidazole-5-carboxamide] | < 100 | < 100 |
| CS(=O)(=O)c1ccc(CNC(=O)c2ccc3c(c2)nc(C2(F)CC2)n3Cc2cccc3c2OC(F)(F)O3)cc1 [I-40, 1-((2,2-difluorobenzo[d][1,3]dioxol-4-yl)methyl)-2-(1-fluorocyclopropyl)-N-(4-(methylsulfonyl)benzyl)-1H-benzo[d]imidazole-5-carboxamide] | < 100 | < 100 |
| O=C(NCc1ccc(S(=O)(=O)CCO)cc1)c1ccc2c(c1)nc(C1(F)CC1)n2Cc1cccc2c1OC(F)(F)O2 [I-41, 1-((2,2-difluorobenzo[d][1,3]dioxol-4-yl)methyl)-2-(1-fluorocyclopropyl)-N-(4-((2-hydroxyethyl)sulfonyl)benzyl)-1H-benzo[d]imidazole-5-carboxamide] | < 100 | < 100 |
| CNS(=O)(=O)c1ccc(CNC(=O)c2ccc3c(c2)nc(C2(F)CC2)n3Cc2cccc3c2OC(F)(F)O3)cc1 [I-42, 1-((2,2-difluorobenzo[d][1,3]dioxol-4-yl)methyl)-2-(1-fluorocyclopropyl)-N-(4-(N-methylsulfamoyl)benzyl)-1H-benzo[d]imidazole-5-carboxamide] | < 100 | < 100 |
| CCS(=O)(=O)c1ccc(CNC(=O)c2ccc3c(c2)nc(C2(F)CCC2)n3Cc2cccc3c2OC(F)(F)O3)cc1 [I-43, 1-((2,2-difluorobenzo[d][1,3]dioxol-4-yl)methyl)-N-(4-(ethylsulfonyl)benzyl)-2-(1-fluorocyclobutyl)-1H-benzo[d]imidazole-5-carboxamide] | < 100 | < 100 |
| O=C(NCc1ccc(S(=O)(=O)CCO)cc1)c1ccc2c(c1)nc(C(F)(F)F)n2Cc1cccc2c1OC(F)(F)O2 [I-45, 1-((2,2-difluorobenzo[d][1,3]dioxol-4-yl)methyl)-N-(4-((2-hydroxyethyl)sulfonyl)benzyl)-2-(trifluoromethyl)-1H-benzo[d]imidazole-5-carboxamide] | < 100 | < 100 |
| CNS(=O)(=O)c1ccc(CNC(=O)c2ccc3c(c2)nc(C(F)(F)F)n3Cc2cccc3c2OC(F)(F)O3)cc1 [I-46, 1-((2,2-difluorobenzo[d][1,3]dioxol-4-yl)methyl)-N-(4-(N-methylsulfamoyl)benzyl)-2-(trifluoromethyl)-1H-benzo[d]imidazole-5-carboxamide] | < 100 | < 100 |
| O=C(NCc1ccc(S(=O)(=O)CCO)cc1)c1ccc2c(c1)nc(C1CC1)n2Cc1cccc2c1OC(F)(F)O2 [I-47, 2-cyclopropyl-1-((2,2-difluorobenzo[d][1,3]dioxol-4-yl)methyl)-N-(4-((2-hydroxyethyl)sulfonyl)benzyl)-1H-benzo[d]imidazole-5-carboxamide] | < 100 | < 100 |
| CS(=O)(=O)c1ccc(CNC(=O)c2ccc3c(c2)nc(C(F)(F)F)n3Cc2cccc3c2OC(F)(F)O3)cc1 [I-48, 1-((2,2-difluorobenzo[d][1,3]dioxol-4-yl)methyl)-N-(4-(methylsulfonyl)benzyl)-2-(trifluoromethyl)-1H-benzo[d]imidazole-5-carboxamide] | < 100 | < 100 |
| CS(=O)(=O)c1ccc(CNC(=O)c2ccc3c(c2)nc(C(F)F)n3Cc2cccc3c2OC(F)(F)O3)cc1 [I-50, 1-((2,2-difluorobenzo[d][1,3]dioxol-4-yl)methyl)-2-(difluoromethyl)-N-(4-(methylsulfonyl)benzyl)-1H-benzo[d]imidazole-5-carboxamide] | < 100 | < 100 |
| NS(=O)(=O)c1ccc(CNC(=O)c2ccc3c(c2)nc(C(F)(F)F)n3Cc2cccc3c2OC(F)(F)O3)cc1 [I-51, 1-((2,2-difluorobenzo[d][1,3]dioxol-4-yl)methyl)-N-(4-sulfamoylbenzyl)-2-(trifluoromethyl)-1H-benzo[d]imidazole-5-carboxamide] | < 100 | 100 to 1000 |
| CCCS(=O)(=O)c1ccc(CNC(=O)c2ccc3c(c2)nc(C(F)(F)F)n3Cc2cccc3c2OC(F)(F)O3)cc1 [I-52, 1-((2,2-difluorobenzo[d][1,3]dioxol-4-yl)methyl)-N-(4-(propylsulfonyl)benzyl)-2-(trifluoromethyl)-1H-benzo[d]imidazole-5-carboxamide] | < 100 | < 100 |
| COC(=O)CS(=O)(=O)c1ccc(CNC(=O)c2ccc3c(c2)nc(C(F)(F)F)n3Cc2cccc3c2OC(F)(F)O3)cc1 [I-53, methyl 2-((4-((1-((2,2-difluorobenzo[d][1,3]dioxol-4-yl)methyl)-2-(trifluoromethyl)-1H-benzo[d]imidazole-5-carboxamido)methyl)phenyl)sulfonyl)acetate] | < 100 | 100 to 1000 |
| CCS(=O)(=O)c1ccc(CNC(=O)c2ccc3c(c2)nc(C(C)(C)OC)n3Cc2cccc3c2OC(F)(F)O3)cc1 [I-54, 1-((2,2-difluorobenzo[d][1,3]dioxol-4-yl)methyl)-N-(4-(ethylsulfonyl)benzyl)-2-(2-methoxypropan-2-yl)-1H-benzo[d]imidazole-5-carboxamide] | < 100 | < 100 |
| CCS(=O)(=O)c1ccc(CNC(=O)c2ccc3c(c2)nc(OC)n3Cc2cccc3c2OC(F)(F)O3)cc1 [I-55, 1-((2,2-difluorobenzo[d][1,3]dioxol-4-yl)methyl)-N-(4-(ethylsulfonyl)benzyl)-2-methoxy-1H-benzo[d]imidazole-5-carboxamide] | < 100 | 100 to 1000 |
